The source of these data is ChEMBL document CHEMBL1821636, “Binding inhibitors of the bacterial sliding clamp by design” (J Med Chem, 2011).

A short description of test [1]: Inhibition of Escherichia coli polymerase 3alpha/beta subunit homo dimer interaction by plate binding assay.
Test [2] in a line: Binding affinity to Escherichia coli polymerase 3 beta subunit homo dimer by SPR assay.

Non-standard residues stand in square brackets, D forms with d. Residues, ends and D or L forms follow the SMILES beside them. Phe(3,4-Cl2) = N[C@@H](Cc1ccc(Cl)c(Cl)c1)C(=O)O; pGlu = O=C1CC[C@@H](C(=O)O)N1

For `CC(=O)N[C@@H](CCC(N)=O)C(=O)N[C@@H](CC(C)C)C(=O)N[C@@H](CC(=O)O)C(=O)N[C@@H](CC(C)C)C(=O)N[C@@H](Cc1cccc(Cl)c1)C(=O)O`, the IC50 in test [1] was determined as 11 nM; in test [2], 49 nM. For `COc1ccc(C(=O)N[C@@H](CCC(N)=O)C(=O)N[C@@H](CC(C)C)C(=O)N[C@@H](CC(=O)O)C(=O)N[C@@H](CC(C)C)C(=O)N[C@@H](Cc2ccc(Cl)c(Cl)c2)C(=O)O)c(OC)c1`, in that order: 42 nM and 27 nM. For H-IGQLSLFGV-OH, in that order: 2300 nM and 550 nM.

`CC(=O)N[C@@H](CCC(N)=O)C(=O)N[C@@H](CC(C)C)C(=O)N[C@@H](CC(=O)O)C(=O)N[C@@H](CC(C)C)C(=O)N[C@@H](Cc1ccc(Cl)c(Cl)c1)C(=O)O`: the IC50 came to 21 nM in test [1] and 23 nM in test [2]. For `CC(C)COC(=O)N[C@@H](CCC(N)=O)C(=O)N[C@@H](CC(C)C)C(=O)N[C@@H](CC(=O)O)C(=O)N[C@@H](CC(C)C)C(=O)N[C@@H](Cc1ccc(Cl)c(Cl)c1)C(=O)O`, in that order: 20 nM and 41 nM. For `CCC(=O)N[C@@H](CCC(N)=O)C(=O)N[C@@H](CC(C)C)C(=O)N[C@@H](CC(=O)O)C(=O)N[C@@H](CC(C)C)C(=O)N[C@@H](Cc1ccc(Cl)c(Cl)c1)C(=O)O`, in that order: 63 nM and 61 nM. As for H-IGQADLFGV-OH, the IC50 in test [1] worked out at 56000 nM. H-IGQADMWGV-OH yielded an IC50 in test [1] of 282000 nM. `NC(CCC(=O)NC(CSCC(=O)c1ccc(Br)cc1)C(=O)NCC(=O)O)C(=O)O` (stereo not given): the IC50 in test [1] turned out to be 210000 nM. H-IGQADIFGV-OH: the IC50 in test [1] amounted to 315000 nM. H-IGQADFFGV-OH: the IC50 in test [1] is 174000 nM. Consider `CC(C)C[C@H](NC(=O)[C@H](CC(=O)O)NC(=O)[C@H](CC(C)C)NC(=O)[C@H](CCC(N)=O)NC(=O)Cc1c[nH]c2ccccc12)C(=O)N[C@@H](Cc1ccc(Cl)c(Cl)c1)C(=O)O`, for which the values for the IC50 in test [1] and in test [2] were 66 nM and 537 nM, respectively.

Take `CC[C@H](C)[C@H](N)C(=O)NCC(=O)N[C@@H](CCC(N)=O)C(=O)N[C@@H](C)C(=O)N[C@@H](CC(=O)O)C(=O)N[C@@H](CCSC)C(=O)N[C@@H](Cc1ccccc1)C(=O)NCC(=O)N[C@H](C(=O)O)C(C)C`: the IC50 in test [1] was 96000 nM; in test [2], 3000 nM.

Take `CC(C)C[C@H](NC(=O)[C@H](CC(=O)O)NC(=O)[C@H](CC(C)C)NC(=O)[C@H](CCC(N)=O)NC(=O)COCc1ccccc1)C(=O)N[C@@H](Cc1ccc(Cl)c(Cl)c1)C(=O)O`: the results for the IC50 in test [1] and in test [2] were 67 nM and 337 nM, respectively. On the same counts, the results for `CC(C)C[C@H](NC(=O)[C@H](CC(=O)O)NC(=O)[C@H](CC(C)C)NC(=O)[C@H](CCC(N)=O)NC(=O)c1ccccc1)C(=O)N[C@@H](Cc1ccc(Cl)c(Cl)c1)C(=O)O` are 69 nM and 456 nM.

As for `CC(=O)N[C@@H](CCC(N)=O)C(=O)N[C@@H](CC(C)C)C(=O)N[C@@H](CC(=O)O)C(=O)N[C@@H](CC(C)C)C(=O)N[C@@H](Cc1ccccc1)C(=O)O`, the IC50 in test [1] was found to be 70 nM; in test [2] it was 400 nM. On the same counts, the results for `CC(C)C[C@H](NC(=O)[C@H](CC(=O)O)NC(=O)[C@H](CC(C)C)NC(=O)[C@@H](N)CCC(N)=O)C(=O)N[C@@H](Cc1ccccc1)C(=O)O` are 2600 nM and 620 nM. Molecule `CC(C)C[C@H](NC(=O)[C@H](CC(=O)O)NC(=O)[C@H](CC(C)C)NC(=O)[C@@H]1CCC(=O)N1)C(=O)N[C@@H](Cc1ccccc1)C(=O)O` ([pGlu]LDLF-OH) returned an IC50 in test [1] of 4500 nM. Regarding `CC(=O)N[C@@H](CCC(N)=O)C(=O)N[C@@H](CC(C)C)C(=O)N[C@@H](CC(=O)O)C(=O)N[C@@H](CC(C)C)C(=O)N[C@@H](Cc1ccccc1Cl)C(=O)O`, the IC50 in test [1] was 34 nM; in test [2] it was 117 nM. For `CC(C)C[C@H](NC(=O)[C@H](CC(=O)O)NC(=O)[C@H](CC(C)C)NC(=O)[C@H](CCC(N)=O)NC(=O)C(C)(C)C)C(=O)N[C@@H](Cc1ccc(Cl)c(Cl)c1)C(=O)O`, in that order: 62 nM and 69 nM. On the same counts, the results for `COC(=O)N[C@@H](CCC(N)=O)C(=O)N[C@@H](CC(C)C)C(=O)N[C@@H](CC(=O)O)C(=O)N[C@@H](CC(C)C)C(=O)N[C@@H](Cc1ccc(Cl)c(Cl)c1)C(=O)O` are 86 nM and 89 nM. With `CCC/C(=N\OC/C(Cl)=C/c1ccc(Cl)cc1)C1C(=O)CC(C)(C)CC1=O`, the IC50 in test [1] came to 350000 nM. `CC(=O)N[C@@H](CCC(N)=O)C(=O)N[C@@H](CC(C)C)C(=O)N[C@@H](CC(=O)O)C(=O)N[C@@H](CC(C)C)C(=O)N[C@@H](Cc1ccc(Cl)cc1)C(=O)O`: the IC50 in test [1] turned out to be 27 nM; in test [2], 20 nM. For the molecule `CCC/C(=N\OCc1ccc(-c2ccccc2)cc1)C1C(=O)CC(C)(C2OCC(C)(C)CO2)OC1=O` (stereo not given), the IC50 in test [1] worked out at 270000 nM. In turn, H-IGQADWFGV-OH returned an IC50 in test [1] of 345000 nM.

As to `CCCC(C)(c1ccc(OC(=O)Cc2ccc([N+](=O)[O-])cc2)cc1)c1ccc(OC(=O)Nc2ccc([N+](=O)[O-])cc2)cc1` (stereo not given), in test [1], the IC50 stood at 300000 nM. Regarding `CSCC[C@H](NC(=O)[C@H](CC(=O)O)NC(=O)[C@H](CC(C)C)NC(=O)[C@H](CCC(N)=O)NC(C)=O)C(=O)N[C@@H](Cc1ccc(Cl)c(Cl)c1)C(=O)O` (Ac-QLDM[Phe(3,4-Cl2)]-OH), the IC50 in test [1] worked out at 37 nM; in test [2] it was 33 nM. For `CCC/C(=N\OCc1ccc(-c2ccc(F)cc2)cc1)C1C(=O)CC(C)(C)C(C#N)C1=O` (stereo not given), in test [1], the IC50 is 40000 nM.

Usually IC50 stands for the concentration at which inhibition is half-maximal.
